Measurements: US6608082B1, “Treatment of erectile dysfunction using isoquinoline compound melanocortin receptor ligands” (Lion Bioscience AG, priority 1998, dated 2003)
Where two headings read alike, the source gives them in different places. Blank lines part the entries; values can stand above or below the molecule they belong to.

Tests used:
MCR-4 = target: T1, MCR-4 (Homo sapiens, UniProt P32245); experiment: Melanocortin receptor binding assay, competition with 125I-HP 467, HEK 293 cells expressing hMCR-4; conditions: for IC50: read-out: MC-4 IC50
T1 construct: expressed in transfected cells; host or cells: HEK 293
T1 sequence (P32245 whole entry): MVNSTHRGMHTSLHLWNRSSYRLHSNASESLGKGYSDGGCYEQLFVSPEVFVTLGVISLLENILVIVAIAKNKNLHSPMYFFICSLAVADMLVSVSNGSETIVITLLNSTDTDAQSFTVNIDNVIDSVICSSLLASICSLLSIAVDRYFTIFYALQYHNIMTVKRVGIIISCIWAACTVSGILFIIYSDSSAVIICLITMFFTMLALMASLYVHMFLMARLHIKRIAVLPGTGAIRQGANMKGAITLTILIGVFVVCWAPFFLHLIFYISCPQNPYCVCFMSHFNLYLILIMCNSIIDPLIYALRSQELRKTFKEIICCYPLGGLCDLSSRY
Procedure, shortened: (§1)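 Test compounds compete on intact HEK 293 cells carrying hMCR-1 (2×10^4 per tube) or hMCR-4 (4×10^3 per tube), suspended in PBS, 10% calf serum, 1 mM CaCl2.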

MCR-1 = target: T2, MCR-1 (Homo sapiens, UniProt Q01726); experiment: Melanocortin receptor binding assay, competition with 125I-HP 467, HEK 293 cells expressing hMCR-1; conditions: for IC50: read-out: MC-1 IC50; for % Disp. MC-1 10 μM: displacement of 125I-HP 467 at 10 μM isoquinoline compound
T2 construct: expressed in transfected cells; host or cells: HEK 293
T2 sequence (Q01726 whole entry): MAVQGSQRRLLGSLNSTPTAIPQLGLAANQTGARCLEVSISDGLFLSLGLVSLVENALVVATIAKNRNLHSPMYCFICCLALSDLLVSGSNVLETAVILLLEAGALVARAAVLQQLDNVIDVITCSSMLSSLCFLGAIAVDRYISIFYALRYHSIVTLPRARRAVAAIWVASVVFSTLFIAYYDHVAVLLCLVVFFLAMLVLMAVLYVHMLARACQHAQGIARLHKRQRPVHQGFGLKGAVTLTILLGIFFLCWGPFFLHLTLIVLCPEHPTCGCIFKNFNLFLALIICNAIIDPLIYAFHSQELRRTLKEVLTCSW
Procedure, shortened: as §1

[1] = TRG 2406 and TRG 2407 libraries, inhibition of binding of 125I-HP 467
[2] = inhibition of binding of 125I-HP 467, HEK 293 cells expressing MCR-4
[3] = inhibition of binding of 125I-HP 467, HEK 293 cells expressing MCR-1
[4] = competition with 125I-HP 467, HEK 293 cells expressing MCR-4
[5] = competition with 125I-HP 467, HEK 293 cells expressing MCR-1
[6] = inhibition of binding of 125I-HP 467, HEK 293 cells expressing MCR-4, TRG 2414 library
[7] = inhibition of binding of 125I-HP 467, HEK 293 cells expressing MCR-1, TRG 2414 library
[8] = TRG 2414 library, inhibition of binding of 125I-HP 467, HEK 293 cells expressing MCR-4
[9] = TRG 2414 library, inhibition of binding of 125I-HP 467, HEK 293 cells expressing MCR-1
[10] = TRG 2405 section, inhibition of binding of 125I-HP 467, HEK 293 cells expressing MCR-4
[11] = TRG 2405 section, inhibition of binding of 125I-HP 467, HEK 293 cells expressing MCR-1
[12] = TRG 2408 and TRG 2409 libraries, inhibition of 125I-HP 467 binding

Structure (SMILES): CNC(CN)CCCCN1Cc2ccccc2C(CN2CCCCC2)C1c1ccc(Cl)cc1Cl (stereo not shown) [TRG 2407-32]
IC50 (MCR-4; [1]): 2.14 µM | IC50 (MCR-1; [1]): 3.29 µM

Structure (SMILES): CCNc1ccc(C2C(CNC3CCCCC3)c3ccccc3CN2CCCC(CN)NCCc2ccc(Br)cc2)cc1 (stereo not shown) [TRG 2411-167]
IC50 (MCR-4; [2]): 1.11 µM | IC50 (MCR-1; [3]): 0.37 µM

Structure (SMILES): CCCCNc1ccc(C2C(CN)c3ccccc3CN2CCCCC(CN)NCCc2ccccc2)cc1 (stereo not shown) [TRG 2411-104]
IC50 (MCR-4; [4]): 0.59 µM | IC50 (MCR-1; [5]): 0.16 µM

Structure (SMILES): COc1ccccc1CCNCC1c2ccccc2CN(CCCCC(CN)NCCc2ccccc2)C1c1ccc(Oc2ccccc2)cc1 (stereo not shown) [TRG 2414-130]
IC50 (MCR-4; [6]): 13.4 µM | IC50 (MCR-1; [7]): 4.63 µM

Structure (SMILES): CCCCNc1ccc(C2C(CNC3CCCCC3)c3ccccc3CN2CCCCC(CN)NCCCC)cc1 (stereo not shown) [TRG 2411-88]
IC50 (MCR-4; [4]): 1.5 µM | IC50 (MCR-1; [5]): 0.24 µM

Structure (SMILES): CCCOc1ccc(C2C(CNCc3ccccc3C(F)(F)F)c3ccccc3CN2CCCCC(CN)NCC(C)c2ccc(CC(C)C)cc2)cc1 (stereo not shown) [TRG 2414-164]
MC-4 IC50 (MCR-4; [6]): no fit | MC-1 IC50 (MCR-1; [7]): no fit

Structure (SMILES): CNC(CN)CCCCN1Cc2ccccc2C(CNC2CCCCC2)C1c1ccc(NCC2CCCCC2)cc1 (stereo not shown) [TRG 2409-15]
IC50 (MCR-4; [4]): 16.2 µM | IC50 (MCR-1; [5]): 1.65 µM

Structure (SMILES): CC(C)Cc1ccc(C(C)CNC(CN)CCCCN2Cc3ccccc3C(CNCc3ccccc3)C2c2cc(C(F)(F)F)cc(C(F)(F)F)c2)cc1 (stereo not shown) [TRG 2414-72]
IC50 (MCR-4; [6]): 44.2 µM | MC-1 IC50 (MCR-1; [7]): no fit

Structure (SMILES): CC(C)Cc1ccc(C(C)CNC(CN)CCCCN2Cc3ccccc3C(CNCCc3cccc(Cl)c3)C2c2ccccc2Br)cc1 (stereo not shown) [Cmpd 216]
IC50 (MCR-4; [8]): 39 µM | IC50 (MCR-1; [9]): 48.3 µM

Structure (SMILES): CCNc1ccc(C2C(CN)c3ccccc3CN2CCCC(CN)NCCCCN)cc1 (stereo not shown) [TRG 2419-11]
IC50 (MCR-4; [2]): 18.4 µM | IC50 (MCR-1; [3]): 0.199 µM

Structure (SMILES): CCCCCc1ccc(C2C(CN)c3ccccc3CN2CCCC(CN)NCCC2CCCCC2)cc1 (stereo not shown) [TRG 2415-14]
IC50 (MCR-4; [2]): 9.39 µM | IC50 (MCR-1; [3]): 1.69 µM

Structure (SMILES): COc1ccc(CCNCC2c3ccccc3CN(CCCCC(CN)NCCc3ccccc3)C2c2ccc(Cl)cc2Cl)cc1 (mixture of isomers) [TRG 2414-26]
IC50 (MCR-4; [6]): 2.52 µM | IC50 (MCR-1; [7]): 3.95 µM

Structure (SMILES): NCC(CCCCN1Cc2ccccc2C(CNC2CCCCCC2)C1c1ccc(Oc2ccccc2)cc1)NCCc1ccccc1 (stereo not shown) [TRG 2414-154]
IC50 (MCR-4; [6]): 7.52 µM | IC50 (MCR-1; [7]): 4.85 µM

Structure (SMILES): CNC(CN)CN1Cc2ccccc2C(CNC2CCCCC2)C1c1cccn1C (mixture of isomers) [TRG 2405-94]
IC50 (MCR-4; [10]): 10.5 µM | IC50 (MCR-1; [11]): 2.11 µM | % Disp. MC-1 10 μM (MCR-1; first of duplicate): 68.9% | % Disp. MC-1 10 μM (MCR-1; second of duplicate): 72%

Structure (SMILES): CCNc1ccc(C2C(CNCCc3ccccc3)c3ccccc3CN2CCCC(CN)NCc2ccccc2CNC(C)C)cc1 (stereo not shown) [TRG 2420-13]
IC50 (MCR-4; [2]): 0.67 µM | IC50 (MCR-1; [3]): 0.065 µM

Structure (SMILES): COc1cccc(CCNCC2c3ccccc3CN(CCCCC(CN)NCc3ccc(-c4ccccc4)cc3)C2c2cc(C(F)(F)F)cc(C(F)(F)F)c2)c1 (stereo not shown) [TRG 2421-40]
IC50 (MCR-4; [2]): 3.98 µM | IC50 (MCR-1; [3]): 12.1 µM

Structure (SMILES): COc1ccccc1CCNCC1c2ccccc2CN(CCCCC(CN)NCC(C)c2ccc(CC(C)C)cc2)C1c1cc(C(F)(F)F)cc(C(F)(F)F)c1 (mixture of isomers) [TRG 2414-52]
IC50 (MCR-4; [6]): 17.5 µM | IC50 (MCR-1; [7]): 22.1 µM

Structure (SMILES): NCC(CCCCN1Cc2ccccc2C(CNC2CCCCC2)C1c1ccc(-c2ccccc2)cc1)NCCc1ccccc1 (stereo not shown) [TRG 2408-22]
IC50 (MCR-4; [12]): 11.4 µM | IC50 (MCR-1; [12]): 2.77 µM

Structure (SMILES): NCC(CCN1Cc2ccccc2C(CNC2CCCCC2)C1c1ccc(-c2ccccc2)cc1)NCCc1ccccc1 (stereo not shown) [TRG 2408-112]
IC50 (MCR-4; [12]): 10.4 µM | IC50 (MCR-1; [12]): 8.79 µM

Structure (SMILES): NCC(N)CCCCN1Cc2ccccc2C(CNCCc2cccc(Cl)c2)C1c1cc(C(F)(F)F)cc(C(F)(F)F)c1 (stereo not shown) [TRG 2414-53]
IC50 (MCR-4; [6]): 0.64 µM | IC50 (MCR-1; [7]): 9.78 µM

Structure (SMILES): CCCOc1ccc(C2C(CN)c3ccccc3CN2CCCC(CN)NCCC2CCCCC2)cc1 (stereo not shown) [TRG 2415-11]
IC50 (MCR-4; [2]): 1.52 µM | IC50 (MCR-1; [3]): 0.441 µM

Structure (SMILES): NCC(N)CCCCN1Cc2ccccc2C(CNCc2ccccc2C(F)(F)F)C1c1ccccc1Br (stereo not shown) [Cmpd 201]
MC-4 IC50 (MCR-4; [8]): no fit | MC-1 IC50 (MCR-1; [9]): no fit

Structure (SMILES): CCCOc1ccc(C2C(CNCc3ccccc3)c3ccccc3CN2CCCCC(CN)NCC(C)c2ccc(CC(C)C)cc2)cc1 (mixture of isomers) [Cmpd 192]
IC50 (MCR-4; [8]): 16 µM | IC50 (MCR-1; [9]): 11.4 µM

Structure (SMILES): NCCN1Cc2ccccc2C(CNC2CCCCC2)C1c1cc(C(F)(F)F)cc(C(F)(F)F)c1 (stereo not shown) [TRG 2405-28]
IC50 (MCR-4; [10]): 9.24 µM | IC50 (MCR-1; [11]): 8.75 µM | % Disp. MC-1 10 μM (MCR-1; first of duplicate): 52% | % Disp. MC-1 10 μM (MCR-1; second of duplicate): 52.5%

Structure (SMILES): CCCOc1ccc(C2C(CNCCc3ccccc3OC)c3ccccc3CN2CCCCC(CN)NCC(C)c2ccc(CC(C)C)cc2)cc1 (stereo not shown) [TRG 2414-172]
IC50 (MCR-4; [6]): 39.6 µM | IC50 (MCR-1; [7]): 15.7 µM

Structure (SMILES): NCC(CCCCN1Cc2ccccc2C(CNC2CCCCC2)C1c1ccc(Oc2ccccc2)cc1)NCc1ccccc1 (stereo not shown) [TRG 2414-159]
IC50 (MCR-4; [6]): 9.82 µM | IC50 (MCR-1; [7]): 1.4 µM

Structure (SMILES): CCNc1ccc(C2C(CNC3CCCCC3)c3ccccc3CN2CCCCC(CN)NCCc2ccc3ccccc3c2)cc1 (stereo not shown) [TRG 2411-57]
IC50 (MCR-4; [4]): 1.19 µM | IC50 (MCR-1; [5]): 0.92 µM

Structure (SMILES): COc1ccc(CCNCC2c3ccccc3CN(CCCCC(CN)NCc3ccccc3)C2c2cccc(C(F)(F)F)c2)cc1 (stereo not shown) [TRG 2421-43]
IC50 (MCR-4; [2]): 1.76 µM | IC50 (MCR-1; [3]): 2.15 µM

Structure (SMILES): CCCOc1ccc(C2C(CO)c3ccccc3CN2CCCC(CN)NCCC2CCCCC2)cc1 (mixture of isomers) [TRG 2415-4]
IC50 (MCR-4; [2]): 2.55 µM | IC50 (MCR-1; [3]): 2.57 µM

Further lines, results first:

IC50 (MCR-4; [8]): 39.6 µM | IC50 (MCR-1; [9]): 30.2 µM
Structure (SMILES): NCC(CCCCN1Cc2ccccc2C(CNCc2ccccc2C(F)(F)F)C1c1ccccc1Br)NCc1ccccc1 (stereo not shown) [Cmpd 203]

IC50 (MCR-4; [4]): 1.22 µM | IC50 (MCR-1; [5]): 0.6 µM
Structure (SMILES): NCC(N)CCCCN1Cc2ccccc2C(CNCCc2ccccc2)C1c1ccc(-c2ccccc2)cc1 (stereo not shown) [TRG 2411-1]

IC50 (MCR-4; [6]): 6.21 µM | IC50 (MCR-1; [7]): 5.39 µM
Structure (SMILES): NCC(CCCCN1Cc2ccccc2C(CNCc2ccccc2)C1c1ccc(Cl)cc1Cl)NCCc1ccccc1 (stereo not shown) [TRG 2414-30]

IC50 (MCR-4; [2]): 1.78 µM | IC50 (MCR-1; [3]): 0.09 µM
Structure (SMILES): CCNc1ccc(C2C(CNCCc3ccccc3)c3ccccc3CN2CCCC(CN)NC)cc1 (stereo not shown) [TRG 2411-151]

IC50 (MCR-4; [1]): 1.79 µM | IC50 (MCR-1; [1]): 2.12 µM
Structure (SMILES): CCn1c2ccccc2c2cc(C3C(CNCc4ccccc4O)c4ccccc4CN3CCCCC(CN)NC)ccc21 (stereo not shown) [TRG 2406-22]

IC50 (MCR-4; [8]): 10.8 µM | IC50 (MCR-1; [9]): 8.2 µM
Structure (SMILES): COc1cccc(CNCC2c3ccccc3CN(CCCCC(CN)NCCc3ccccc3)C2c2ccccc2Br)c1 (stereo not shown) [Cmpd 218]

MC-4 IC50 (MCR-4; [6]): no fit | IC50 (MCR-1; [7]): 17.6 µM
Structure (SMILES): NC[C@H](CCCCN1Cc2ccccc2C(CNCc2ccccc2C(F)(F)F)C1c1ccc(Oc2ccccc2)cc1)NCc1ccccc1 (stereo partly shown) [TRG 2414-123]

IC50 (MCR-4; [6]): 12.6 µM | IC50 (MCR-1; [7]): 0.788 µM
Structure (SMILES): COc1cccc(CNCC2c3ccccc3CN(CCCCC(CN)NCc3ccccc3)C2c2ccc(Oc3ccccc3)cc2)c1 (stereo not shown) [TRG 2414-139]

IC50 (MCR-4; [6]): 8.08 µM | IC50 (MCR-1; [7]): 0.7 µM
Structure (SMILES): CCOc1ccccc1CNCC1c2ccccc2CN(CCCCC(N)CN)C1c1ccc(Oc2ccccc2)cc1 (stereo not shown) [TRG 2414-125]

IC50 (MCR-4; [4]): 0.84 µM | IC50 (MCR-1; [5]): 0.12 µM
Structure (SMILES): CCNc1ccc(C2C(CNCCc3ccccc3)c3ccccc3CN2CCCCC(CN)NCc2ccc(OC)cc2)cc1 (stereo not shown) [TRG 2411-45]

IC50 (MCR-4; [1]): 3.85 µM | IC50 (MCR-1; [1]): 4.13 µM
Structure (SMILES): CNC(CN)CCCCN1Cc2ccccc2C(CNCc2ccccc2)C1c1ccc(Cl)cc1Cl (stereo not shown) [TRG 2407-10]

MC-4 IC50 (MCR-4; [8]): no fit | MC-1 IC50 (MCR-1; [9]): no fit
Structure (SMILES): CCCOc1ccc(C2C(CNCCc3ccccc3OC)c3ccccc3CN2CCCCC(N)CN)cc1 (stereo not shown) [Cmpd 277]

IC50 (MCR-4; [6]): 18.4 µM | IC50 (MCR-1; [7]): 19.1 µM
Structure (SMILES): CCCOc1ccc(C2C(CNCc3ccccc3C(F)(F)F)c3ccccc3CN2CCCCC(CN)NCCc2ccccc2)cc1 (mixture of isomers) [TRG 2414-162]
